Laboratory results published in patent US20010011063A1, “Substituted 2,4-diamino-1,3,5-triazines, processes for their preparation and their use as herbicides and plant growth regulators” (priority 1999, published 2001).

How the values were obtained:
Format in all cases: in vivo
[1] = test system: Cyperus monti, Echinochloa crus-galli and Sagitaria pygmaea; test: Action on harmful plants in rice (paddy rice conditions); conditions: poured into the dammed water, visual scoring about three weeks after application; further: test concentration or dose not given here
Text: Transplanted and sown rice and also typical rice weeds (gramineous and broad-leaved) are cultivated in closed plastic pots in a greenhouse to the three-leaf stage (Echinochloa crus-galli 1.5-leaf) under paddy rice conditions (height of water: 2-3 cm). This is followed by treatment with the compounds according to the invention. For this purpose, the formulated active compounds are suspended, dissolved or emulsified in water and applied by pouring them into the dammed water around the test plants in different dosages.

[2] = test system: Sinapis alba, Echinochloa crus-galli, Lolium multiforum, Stellaria media, Cyperus iria, Amaranthus retroflexus, Settaria viridis and Avena sativa; test: Post-emergence effect on weeds (greenhouse pot test); conditions: application rate of 1 kg or less of active substance per hectare; treated at the three-leaf stage; scored visually after about 3 to 4 weeks vs untreated controls
Description: Seeds or rhizome pieces of mono- and dicotyledonous weeds are placed in sandy loam soil in plastic pots, covered with soil and grown in a greenhouse under good growth conditions. Three weeks after sowing, the test plants are treated at the three-leaf stage. The compounds according to the invention, formulated as wettable powders or emulsion concentrates, are sprayed, at various dosages, onto the green parts of the plants at an application rate of 600 to 800 l of water/ha (converted). After the test plants had remained in the greenhouse for about 3 to 4 weeks under optimum growth conditions, the effect of the preparations is scored visually by comparison with untreated controls. The agents according to the invention also have good herbicidal activity post-emergence against a broad spectrum of economically important weed grasses and broad-leaved weeds.

[3] = test system: Stellaria media, Lolium multiflorum, Amaranthus retroflexus, Sinapis alba, Avena sativa and Settaria viridis; test: Pre-emergence effect on weeds (greenhouse pot test); conditions: application rate of 1 kg or less of active substance per hectare; visually scored after 3 to 4 weeks by comparison with untreated controls
Text: Seeds or rhizome pieces of mono and dicotyledonous weed plants are placed in sandy loam soil in plastic pots and covered with soil. The compounds according to the invention which are formulated in the form of wettable powders or emulsion concentrates are then applied to the soil cover in the form of aqueous suspensions or emulsions at an application rate of 600 to 800 l of water/ha (converted), in various dosages.

CC(C)(F)c1nc(N)nc(NC(CCCc2cccc(Cl)c2)C2CCC2)n1 (stereo not drawn) [Example 4-68]
very good herbicidal activity: herbicidal activity against harmful plants which are typical for rice crops [1] | herbicidal activity post-emergence against harmful plants [2] | herbicidal activity pre-emergence against harmful plants [3]

Cc1cccc(CCCC(Nc2nc(N)nc(C(C)C)n2)C2CCC2)c1 (stereo not drawn) [Example 4-71]
very good herbicidal activity: herbicidal activity against harmful plants which are typical for rice crops [1] | herbicidal activity post-emergence against harmful plants [2] | herbicidal activity pre-emergence against harmful plants [3]

Cc1cccc(CCCC(Nc2nc(N)nc(C(C)(C)F)n2)C2CCC2)c1 (stereo not drawn) [Example 4-72]
very good herbicidal activity: herbicidal activity against harmful plants which are typical for rice crops [1] | herbicidal activity post-emergence against harmful plants [2] | herbicidal activity pre-emergence against harmful plants [3]

COc1cccc(CCCC(Nc2nc(N)nc(C(C)C)n2)C2CCC2)c1 (stereo not drawn) [Example 4-75]
very good herbicidal activity: herbicidal activity against harmful plants which are typical for rice crops [1] | herbicidal activity post-emergence against harmful plants [2] | herbicidal activity pre-emergence against harmful plants [3]

COc1cccc(CCCC(Nc2nc(N)nc(C(C)(C)F)n2)C2CCC2)c1 (stereo not drawn) [Example 4-76]
very good herbicidal activity: herbicidal activity against harmful plants which are typical for rice crops [1] | herbicidal activity post-emergence against harmful plants [2] | herbicidal activity pre-emergence against harmful plants [3]

CC(C)Cc1nc(N)nc(NC(Cc2ccccc2)CC2CC2)n1 (stereo not drawn) [Example 5-1]
very good herbicidal activity: herbicidal activity against harmful plants which are typical for rice crops [1] | herbicidal activity post-emergence against harmful plants [2] | herbicidal activity pre-emergence against harmful plants [3]

CC(C)(F)c1nc(N)nc(NC(Cc2ccccc2)CC2CC2)n1 (stereo not drawn) [Example 5-2]
very good herbicidal activity: herbicidal activity against harmful plants which are typical for rice crops [1] | herbicidal activity post-emergence against harmful plants [2] | herbicidal activity pre-emergence against harmful plants [3]

CC(C)c1nc(N)nc(NC(Cc2ccccc2)CC2CC2)n1 (stereo not drawn) [Example 5-3]
very good herbicidal activity: herbicidal activity against harmful plants which are typical for rice crops [1] | herbicidal activity post-emergence against harmful plants [2] | herbicidal activity pre-emergence against harmful plants [3]

CC(C)c1nc(N)nc(NC(CCCCc2ccccc2)C2CC2)n1 (stereo not drawn) [Example 5-43]
very good herbicidal activity: herbicidal activity against harmful plants which are typical for rice crops [1] | herbicidal activity post-emergence against harmful plants [2] | herbicidal activity pre-emergence against harmful plants [3]

CC(C)(F)c1nc(N)nc(NC(CCCCc2ccccc2)C2CC2)n1 (stereo not drawn) [Example 5-44]
very good herbicidal activity: herbicidal activity against harmful plants which are typical for rice crops [1] | herbicidal activity post-emergence against harmful plants [2] | herbicidal activity pre-emergence against harmful plants [3]

CC(C)(F)c1nc(N)nc(NC(CCCCc2ccccc2)C2CCC2)n1 (stereo not drawn) [Example 5-47]
very good herbicidal activity: herbicidal activity against harmful plants which are typical for rice crops [1] | herbicidal activity post-emergence against harmful plants [2] | herbicidal activity pre-emergence against harmful plants [3]

CC(C)Cc1nc(N)nc(N[C@H](Cc2ccccc2)CC2CC2)n1 [Example 6-1]
very good herbicidal activity: herbicidal activity against harmful plants which are typical for rice crops [1] | herbicidal activity post-emergence against harmful plants [2] | herbicidal activity pre-emergence against harmful plants [3]

CC(C)(F)c1nc(N)nc(N[C@H](Cc2ccccc2)CC2CC2)n1 [Example 6-2]
very good herbicidal activity: herbicidal activity against harmful plants which are typical for rice crops [1] | herbicidal activity post-emergence against harmful plants [2] | herbicidal activity pre-emergence against harmful plants [3]

CC(C)c1nc(N)nc(N[C@H](Cc2ccccc2)CC2CC2)n1 [Example 6-3]
very good herbicidal activity: herbicidal activity against harmful plants which are typical for rice crops [1] | herbicidal activity post-emergence against harmful plants [2] | herbicidal activity pre-emergence against harmful plants [3]

CC(C)c1nc(N)nc(N[C@H](CCCCc2ccccc2)C2CC2)n1 [Example 6-43]
very good herbicidal activity: herbicidal activity against harmful plants which are typical for rice crops [1] | herbicidal activity post-emergence against harmful plants [2] | herbicidal activity pre-emergence against harmful plants [3]

CC(C)(F)c1nc(N)nc(N[C@H](CCCCc2ccccc2)C2CC2)n1 [Example 6-44]
very good herbicidal activity: herbicidal activity against harmful plants which are typical for rice crops [1] | herbicidal activity post-emergence against harmful plants [2] | herbicidal activity pre-emergence against harmful plants [3]

CC(C)(F)c1nc(N)nc(N[C@H](CCCCc2ccccc2)C2CCC2)n1 [Example 6-47]
very good herbicidal activity: herbicidal activity against harmful plants which are typical for rice crops [1] | herbicidal activity post-emergence against harmful plants [2] | herbicidal activity pre-emergence against harmful plants [3]
